Test results reported in patent US20100092480A1, “MODULATORS OF PROTEIN PHOSPHATASE 2A” (priority 2006, published 2010).
Starred links: 1 amine or outer side, 2 acyl side, 3 side chain; linkers in the order of their positions; H or OH if unused. Positions of bridges follow the written chain, without caps; N, C: chain ends. Non-standard residues stand in square brackets, D forms with d. Residues, ends and D or L forms follow the SMILES beside them. Adda = CO[C@@H](Cc1ccccc1)[C@@H](C)/C=C(C)/C=C/[C@H](N[*:1])[C@H](C)C(=O)[*:2]; dAsp(3S-Me) = C[C@H](C(=O)[*:3])[C@@H](N[*:1])C(=O)[*:2]; d(γGlu) = O=C(O)[C@@H](CCC(=O)[*:2])N[*:1]; NMeDha = C=C(NC)C(=O)O

Key:
PP2A core = PP2A core (Homo sapiens, UniProt P67775); format: biochemical; conditions: stoichiometric amounts of inhibitor
Sequence of PP2A core (P67775 whole entry): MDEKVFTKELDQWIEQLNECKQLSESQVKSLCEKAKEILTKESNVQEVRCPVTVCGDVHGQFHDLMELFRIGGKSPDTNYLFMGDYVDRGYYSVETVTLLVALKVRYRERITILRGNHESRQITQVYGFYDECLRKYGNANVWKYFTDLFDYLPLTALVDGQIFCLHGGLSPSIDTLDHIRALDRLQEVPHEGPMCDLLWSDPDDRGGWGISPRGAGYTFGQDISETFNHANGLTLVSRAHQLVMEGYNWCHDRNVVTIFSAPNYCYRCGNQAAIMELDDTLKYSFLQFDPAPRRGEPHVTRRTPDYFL
Sequence of PP2A core (P30153 whole entry, further chain): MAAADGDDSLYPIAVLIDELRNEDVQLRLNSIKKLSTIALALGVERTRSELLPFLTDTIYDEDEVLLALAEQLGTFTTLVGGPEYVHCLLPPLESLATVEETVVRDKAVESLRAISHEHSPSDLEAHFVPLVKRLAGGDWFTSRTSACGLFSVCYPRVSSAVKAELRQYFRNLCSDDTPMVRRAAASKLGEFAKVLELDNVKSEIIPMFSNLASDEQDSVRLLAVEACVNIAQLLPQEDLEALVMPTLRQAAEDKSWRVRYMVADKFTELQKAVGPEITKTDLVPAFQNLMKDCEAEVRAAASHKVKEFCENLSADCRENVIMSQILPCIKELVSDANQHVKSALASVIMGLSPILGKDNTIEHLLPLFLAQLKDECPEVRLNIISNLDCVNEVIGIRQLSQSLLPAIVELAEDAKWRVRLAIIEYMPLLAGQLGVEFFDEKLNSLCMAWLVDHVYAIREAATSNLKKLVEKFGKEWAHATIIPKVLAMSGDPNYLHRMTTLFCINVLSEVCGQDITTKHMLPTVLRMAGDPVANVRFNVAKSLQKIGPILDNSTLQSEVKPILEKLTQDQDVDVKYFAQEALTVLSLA

PP2A = PP2A (Homo sapiens, UniProt P67775); conditions: cited from earlier work
Sequence of PP2A (P67775 whole entry): as the sequence (P67775 whole entry) above

| Structure (SMILES) | inhibition of phosphatase activity of the assembled, purified PP2A core (PP2A core) | IC50 (PP2A; PP2A, read-out: inhibitory constant (IC50)) [nM] | inhibition of the activity of PP2A (PP2A) |
| --- | --- | --- | --- |
| C=C1[C@@H](O)[C@@H]2O[C@]3(CC[C@H](/C=C/[C@@H](C)[C@@H]4CC(C)=C[C@@]5(O[C@H](C[C@@](C)(O)C(=O)O)CC[C@H]5O)O4)O3)CC[C@H]2O[C@@H]1[C@@H](O)C[C@H](C)[C@H]1O[C@@]2(CCCCO2)CC[C@H]1C [OA, okadaic acid] | efficiently inhibited | ~0.1 |  |
| C=C1C(=O)N[C@H](C)C(=O)N[C@@H](CC(C)C)C(=O)N[C@@H](C(=O)O)[C@H](C)C(=O)N[C@@H](CCCNC(=N)N)C(=O)N[C@@H](/C=C/C(C)=C/[C@H](C)[C@H](Cc2ccccc2)OC)[C@H](C)C(=O)N[C@@H](C(=O)O)CCC(=O)N1C [MCLR, microcystin-LR] (R[Adda][d(γGlu)][NMeDha][dA]L[dAsp(3S-Me)]-OH; lactam N-7) |  |  | potently inhibit |
